Results on one compound are retold here after patent US20250188506A1, “ANTICOAGULANT HEPARIN-CHONDROITIN CHIMERIC SACCHARIDE MOLECULE AS WELL AS PREPARATION METHOD AND APPLICATION THEREOF” (SHANDONG UNIVERSITY, priority 2023, published 2025).

Structures are written as SMILES.

Data set [1] addresses T1, PF4 (Homo sapiens, UniProt P02776).
T1 sequence (P02776 32-101): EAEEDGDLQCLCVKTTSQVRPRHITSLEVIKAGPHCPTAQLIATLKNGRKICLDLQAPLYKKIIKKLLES

Data set [2] has as its system Xa factor. The conditions noted are these: commercially available comparator, stated in advantages section; cited from earlier work.

As to `CO[C@H]1O[C@H](COS(=O)(=O)O)[C@@H](O[C@@H]2O[C@@H](C(=O)O)[C@@H](O[C@H]3O[C@H](COS(=O)(=O)O)[C@@H](O[C@@H]4O[C@H](C(=O)O)[C@@H](O[C@H]5O[C@H](COS(=O)(=O)O)[C@@H](O)[C@H](O)[C@H]5NS(=O)(=O)O)[C@H](O)[C@H]4O)[C@H](OS(=O)(=O)O)[C@H]3NS(=O)(=O)O)[C@H](O)[C@H]2OS(=O)(=O)O)[C@H](O)[C@H]1NS(=O)(=O)O` [fondaparinux, fondaparinux sodium], the “average particle size of compounds formed with PF4” value in data set [1] is 61.57 nm. For the same compound, the “neutralization of activity against the Xa factor by protamine (in words)” value in data set [2] is “almost completely not neutralized”.
